Test results published in patent publication US20050197350A1, “Novel quinoline, tetrahydroquinazoline, and pyrimidine derivatives and methods of treatment related to the use thereof” (TAISHO PHARMACEUTICAL CO., LTD., priority 2003, published 2005).

Test system: MCH receptors
Assay: MCH receptor activity class (method not given)
Conditions: class by percent of control at 10^−7 M or IC50

Row | Structure (SMILES) | class
1 | Cc1cnc(NC[C@H]2CC[C@@H](NC(=O)c3cccc(OC(F)(F)F)c3)CC2)nc1N(C)C [compound 2721] | 3 (Class 3 The value of percent of control at 10^−7 M was more than 60% or the value of IC50 was more than 200 nM.)
2 | Cc1cnc(NC[C@H]2CC[C@@H](NC(=O)c3ccc(OC(F)(F)F)cc3)CC2)nc1N(C)C [compound 2722] | 3 (Class 3 The value of percent of control at 10^−7 M was more than 60% or the value of IC50 was more than 200 nM.)
3 | Cc1cnc(NC[C@H]2CC[C@@H](NC(=O)c3ccc(C#N)cc3)CC2)nc1N(C)C [compound 2723] | 3 (Class 3 The value of percent of control at 10^−7 M was more than 60% or the value of IC50 was more than 200 nM.)
4 | Cc1cnc(NC[C@H]2CC[C@@H](NC(=O)c3ccc(Br)cc3)CC2)nc1N(C)C [compound 2724, 4-bromo-N-[cis-4-({[4-(dimethylamino)-5-methylpyrimidin-2-yl]amino}methyl)cyclohexyl]benzamide] | 3 (Class 3 The value of percent of control at 10^−7 M was more than 60% or the value of IC50 was more than 200 nM.)
5 | Cc1cc(C(=O)N[C@H]2CC[C@@H](CNc3ncc(C)c(N(C)C)n3)CC2)ccc1Br [compound 2725, 4-bromo-N-[cis-4-({[4-(dimethylamino)-5-methylpyrimidin-2-yl]amino}methyl)cyclohexyl]-3-methylbenzamide] | 2 (Class 2: The value of percent of control at 10^−7 M was from 40% to 60% or the value of IC′50 was from 50 nM to 200 nM.)
6 | Cc1cnc(NC[C@H]2CC[C@@H](NC(=O)c3ccc(F)c(Cl)c3)CC2)nc1N(C)C [compound 2726] | 2 (Class 2: The value of percent of control at 10^−7 M was from 40% to 60% or the value of IC′50 was from 50 nM to 200 nM.)
7 | Cc1cnc(NC[C@H]2CC[C@@H](NC(=O)c3ccc(C(F)(F)F)c(F)c3)CC2)nc1N(C)C [compound 2727] | 3 (Class 3 The value of percent of control at 10^−7 M was more than 60% or the value of IC50 was more than 200 nM.)
8 | Cc1cnc(NC[C@H]2CC[C@@H](NC(=O)c3cc(Cl)cc(Cl)c3)CC2)nc1N(C)C [compound 2728, 3,5-dichloro-N-[cis-4-({[4-(dimethylamino)-5-methylpyrimidin-2-yl]amino}methyl)cyclohexyl]benzamide] | 2 (Class 2: The value of percent of control at 10^−7 M was from 40% to 60% or the value of IC′50 was from 50 nM to 200 nM.)
9 | Cc1cnc(NC[C@H]2CC[C@@H](NC(=O)c3ccc(Cl)c(Cl)c3)CC2)nc1N(C)C [compound 2729, 3,4-dichloro-N-[cis-4-({[4-(dimethylamino)-5-methylpyrimidin-2-yl]amino}methyl)cyclohexyl]benzamide] | 3 (Class 3 The value of percent of control at 10^−7 M was more than 60% or the value of IC50 was more than 200 nM.)
10 | Cc1cnc(NC[C@H]2CC[C@@H](NC(=O)c3ccc4c(c3)OC(F)(F)O4)CC2)nc1N(C)C [compound 2730] | 3 (Class 3 The value of percent of control at 10^−7 M was more than 60% or the value of IC50 was more than 200 nM.)
11 | Cc1cnc(NC[C@H]2CC[C@@H](NC(=O)c3cc(C(F)(F)F)cc(C(F)(F)F)c3)CC2)nc1N(C)C [compound 2731, N-[cis-4-({[4-(dimethylamino)-5-methylpyrimidin-2-yl]amino}methyl)cyclohexyl]-3,5-bis(trifluoromethyl)benzamide] | 2 (Class 2: The value of percent of control at 10^−7 M was from 40% to 60% or the value of IC′50 was from 50 nM to 200 nM.)
12 | Cc1cc(N(C)C)nc(NC[C@H]2CC[C@@H](NC(=O)c3ccccc3)CC2)n1 [compound 2732, N-[cis-4-({[4-(dimethylamino)-6-methylpyrimidin-2-yl]amino}methyl)cyclohexyl]benzamide] | 3 (Class 3 The value of percent of control at 10^−7 M was more than 60% or the value of IC50 was more than 200 nM.)
13 | Cc1ccc(C(=O)N[C@H]2CC[C@@H](CNc3nc(C)cc(N(C)C)n3)CC2)cc1 [compound 2733] | 3 (Class 3 The value of percent of control at 10^−7 M was more than 60% or the value of IC50 was more than 200 nM.)
